# Test results as given in US4782014A, “Assay and purification of amyloid components, applications, and kits therefor” (Ciba-Geigy Corporation, priority 1985, dated 1988).
# B1: SAA: α1 globulin consisting of a single polypeptide chain of molecular weight between 11'500 and 14'000 Dalton (protein, UniProt P0DJI8 19-122, looked up)
# Serum amyloid A-1 protein: RSFFSFLGEAFDGARDMWRAYSDMREANYIGSDKYFHARGNYDAAKRGPGGAWAAEVITDARENIQRFFGHGAEDSLADQAANEWGRSGKDPNHFRPAGLPEKY
# Key:
# [1] = molecular target: human SAP binding to TNP-KLH coated polystyrene (Homo sapiens, UniProt P02743); assay: Inhibition of binding of human SAP to TNP-KLH coated polystyrene; settings: for IC50 / concentration at 50% inhibition of human SAP binding to TNP-KLH coated polystyrene: 40 ng/ml human SAP, preincubated 2 hours at 20° C.; for IC50: read-out: concentration at 50% inhibition of human SAP binding to TNP-KLH coated polystyrene
# Protocol: The samples containing 40 ng/ml human SAP are preincubated with dilutions of the compound to be tested as an inhibitor for two hours at 20° C. The perent decrease in SAP binding to TNP-KLH is calculated in comparison to the SAP binding in the absence of any inhibitor.
# [2] = ELISA for SAP: binding of purified human SAP to plastic surface
# Protocol: The wells of flat-bottom polystyrene microtiter plates (Immulon®, Dynatech, Zug, Switzerland) or polyvinyl chloride microtiter plates (Microtest III™, Becton Dickinson, Oxnard, CA, USA) are incubated with either 100 μl 0.3M NaHCO3 alone, 100 μl KLH 2 μg/ml in 0.3M NaHCO3, or 100 μl TNP-KLH (Example 1) 2 μg/ml in 0.3M NaHCO3 for one hour or more at room temperature. […] The plates are washed with 5 mM CaCl2, then incubated with 100 μl each of human SAP containing samples (standard solutions or serum dilutions in ELISA buffer) for 2 hours at 20° C. […] The plates are washed with 5 mM CaCl2, incubated for 2 hours at 20° C. with 100 μl of rabbit antiserum to human SAP (Calbiochem) diluted 1:10^4 with ELISA buffer, washed again with 5 mM CaCl2, and incubated overnight in a water-saturated atmosphere at 20° C. with 100 μl of horseradish peroxidase conjugated donkey anti-rabbit Ig antiserum (Amersham Int., Amersham, UK) diluted 1:5000 with ELISA buffer. The plates are washed, then developed with 100 μl per well of buffered o-phenylenediamine (100 mg in 48.6 ml 0.1M citric acid and 51.4 ml 0.2M Na2 HPO4, pH 5.0) containing 0.03% H2 O2 in the dark at 20° C. for 15 minutes. The reaction is stopped by addition of 25 μl 2.5M H2 SO4 and the optical density of the colour developed by the enzyme reaction determined at 492 nm using a Titertek® multiscan spectrophotometer (Flow Laboratories). […]
# [3] = Retention of SAP on TNP-Sepharose column; assay type: binding, human; settings: absence of Ca^2+ ions, TBS
# [4] = ELISA for SAA: binding of human SAA to polystyrene
# Chain of human SAP binding to TNP-KLH coated polystyrene (P02743 20-223): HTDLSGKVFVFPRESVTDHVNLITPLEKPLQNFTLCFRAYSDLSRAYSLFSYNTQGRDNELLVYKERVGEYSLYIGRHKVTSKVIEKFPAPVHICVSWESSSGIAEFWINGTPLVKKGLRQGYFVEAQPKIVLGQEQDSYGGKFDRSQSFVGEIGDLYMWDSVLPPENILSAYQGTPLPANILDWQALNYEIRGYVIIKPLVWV
Molecule,"inhibition of SAP binding to TNP-KLH coated polystyrene, in words [1]",IC50 [1],other results
O=[N+]([O-])c1ccc([As](=O)(O)O)cc1 [p-nitrophenylarsonic acid],Inhibiting properties,4.2 ± 1.3 mM,–
"O=[N+]([O-])c1cc([N+](=O)[O-])c2ccc(S(=O)(=O)O)cc2c1O [2,4-dinitro-1-naphthol-7-sulphonic acid]",Inhibiting properties,43.3 ± 5.8 mM,–
Nc1ccc([As](=O)(O)O)cc1 [p-aminophenyl-arsonic acid],Inhibiting properties,27.3 ± 4.9 mM,–
"SAP: serum amyloid P-component, a 9.5S α1 glycoprotein of 235'000 Dalton molecular weight",–,–,SAP binding at reduced CaCl2 concentration ([2]; 0.06 mM or lower concentrations of CaCl2): no SAP is bound; SAP binding at reduced CaCl2 concentration ([2]; 0.12 mM CaCl2): sharp decrease of SAP binding; retention of SAP on TNP-Sepharose [3]: not retained
"O=C(O)CN(CCN(CC(=O)O)CC(=O)O)CC(=O)O [EDTA, ethylenediamine-N,N,N',N'-tetraacetic acid]",inhibitors of SAP binding at concentrations equal or in excess of the Ca^2+ concentration,5.35 ± 1.3 mM,–
"O=C(O)CN(CCOCCOCCN(CC(=O)O)CC(=O)O)CC(=O)O [EGTA, 1,2-di(2-aminoethoxy)ethane-N,N,N',N'-tetraacetic acid]",inhibitors of SAP binding at concentrations equal or in excess of the Ca^2+ concentration,17 ± 2.2 mM,–
"TNP-BSA: prepared from BSA and 2,4,6-trinitrobenzenesulfonic acid yielding a conjugate with 15 TNP residues per BSA molecule",compete efficiently for SAP,–,concentration at 50% inhibition of human SAP binding to TNP-KLH coated polystyrene [1]: 0.33 ± 0.06 µg/mL
pectic acid,Inhibiting properties,–,concentration at 50% inhibition of human SAP binding to TNP-KLH coated polystyrene [1]: 0.2 ± 0.07 µg/mL
B1,–,–,"binding of human SAA to KLH-coated polystyrene and polystyrene alone, in words ([4]; KLH-coated polystyrene and polystyrene alone): Substantial binding; binding of human SAA to polystyrene coated with TNP-KLH, in words ([4]; TNP-KLH coated polystyrene): very efficiently; binding of human SAA when Ca^2+ is omitted, in words ([4]; TNP-KLH coated polystyrene, Ca^2+ omitted): without loss in binding efficiency"
